# Assays:
# Assay in all cases: KINOMEscan
# Type in all cases: binding
# Settings in all cases: read-out: %Ctrl @ 10000nM
# [1] = biological target: T1, RPS6KA4(Kin.Dom.1-N-terminal) (Homo sapiens, UniProt O75676)
# T1 construct: RPS6KA4(Kin.Dom.1-N-terminal); purchased DiscoverX KINOMEscan
# [2] = biological target: T2, ABL1(T315I)-phosphorylated (Homo sapiens, UniProt P00519, T315I)
# T2 construct: purchased DiscoverX KINOMEscan
# RET(V804M) = biological target: T3, RET(V804M) (Homo sapiens, UniProt P07949, V804M)
# T3 construct: purchased DiscoverX KINOMEscan
# TAOK2 = biological target: T4, TAOK2 (Homo sapiens, UniProt Q9UL54)
# T4 construct: purchased DiscoverX KINOMEscan
# PRKD3 = biological target: T5, PRKD3 (Homo sapiens, UniProt O94806)
# T5 construct: purchased DiscoverX KINOMEscan
# GSK3B = biological target: T6, GSK3B (Homo sapiens, UniProt P49841)
# T6 construct: purchased DiscoverX KINOMEscan
# WNK4 = biological target: T7, WNK4 (Homo sapiens, UniProt Q96J92)
# T7 construct: DNA label for qPCR (T7 phage fusion or DNA tag); purchased DiscoverX scanMAX; host or cells: E. coli BL21-derived (T7 phage) or HEK-293
# [3] = biological target: T8, JAK1(JH2domain-pseudokinase) (Homo sapiens, UniProt P23458)
# T8 construct: JAK1(JH2domain-pseudokinase); purchased DiscoverX KINOMEscan
# VEGFR2 = biological target: T9, VEGFR2 (Homo sapiens, UniProt P35968)
# T9 construct: DNA label for qPCR (T7 phage fusion or DNA tag); purchased DiscoverX scanMAX; host or cells: E. coli BL21-derived (T7 phage) or HEK-293
# IRAK1 = biological target: T10, IRAK1 (Homo sapiens, UniProt P51617)
# T10 construct: purchased DiscoverX KINOMEscan
# TXK = biological target: T11, TXK (Homo sapiens, UniProt P42681)
# T11 construct: DNA label for qPCR (T7 phage fusion or DNA tag); purchased DiscoverX scanMAX; host or cells: E. coli BL21-derived (T7 phage) or HEK-293
# TRKC = biological target: T12, TRKC (Homo sapiens, UniProt Q16288)
# T12 construct: purchased DiscoverX KINOMEscan
# PAK3 = biological target: T13, PAK3 (Homo sapiens, UniProt O75914)
# T13 construct: purchased DiscoverX KINOMEscan
# SRMS = biological target: T14, SRMS (Homo sapiens, UniProt Q9H3Y6)
# T14 construct: purchased DiscoverX KINOMEscan
# MAP3K1 = biological target: T15, MAP3K1 (Homo sapiens, UniProt Q13233)
# T15 construct: purchased DiscoverX KINOMEscan
# HCK = biological target: T16, HCK (Homo sapiens, UniProt P08631)
# T16 construct: purchased DiscoverX KINOMEscan
# MEK5 = biological target: T17, MEK5 (Homo sapiens, UniProt Q13163)
# T17 construct: purchased DiscoverX KINOMEscan
# [4] = biological target: T18, TYK2(JH1domain-catalytic) (Homo sapiens, UniProt P29597)
# T18 construct: TYK2(JH1domain-catalytic); DNA label for qPCR (T7 phage fusion or DNA tag); purchased DiscoverX scanMAX; host or cells: E. coli BL21-derived (T7 phage) or HEK-293
# EPHB3 = biological target: T19, EPHB3 (Homo sapiens, UniProt P54753)
# T19 construct: purchased DiscoverX KINOMEscan
# FES = biological target: T20, FES (Homo sapiens, UniProt P07332)
# T20 construct: purchased DiscoverX KINOMEscan
# CLK4 = biological target: T21, CLK4 (Homo sapiens, UniProt Q9HAZ1)
# T21 construct: purchased DiscoverX KINOMEscan
# CAMK1D = biological target: T22, CAMK1D (Homo sapiens, UniProt Q8IU85)
# T22 construct: purchased DiscoverX KINOMEscan
# SYK = biological target: T23, SYK (Homo sapiens, UniProt P43405)
# T23 construct: purchased DiscoverX KINOMEscan
# PKAC-alpha = biological target: T24, PKAC-alpha (Homo sapiens, UniProt P17612)
# T24 construct: purchased DiscoverX KINOMEscan
# p38-gamma = biological target: T25, p38-gamma (Homo sapiens, UniProt P53778)
# T25 construct: purchased DiscoverX KINOMEscan
# MINK = biological target: T26, MINK (Homo sapiens, UniProt Q8N4C8)
# T26 construct: purchased DiscoverX KINOMEscan
# SRPK3 = biological target: T27, SRPK3 (Homo sapiens, UniProt Q9UPE1)
# T27 construct: purchased DiscoverX KINOMEscan
# PLK2 = biological target: T28, PLK2 (Homo sapiens, UniProt Q9NYY3)
# T28 construct: purchased DiscoverX KINOMEscan
# FLT3 = biological target: T29, FLT3 (Homo sapiens, UniProt P36888)
# T29 construct: purchased DiscoverX KINOMEscan
# MKNK2 = biological target: T30, MKNK2 (Homo sapiens, UniProt Q9HBH9)
# T30 construct: purchased DiscoverX KINOMEscan
# WEE1 = biological target: T31, WEE1 (Homo sapiens, UniProt P30291)
# T31 construct: DNA label for qPCR (T7 phage fusion or DNA tag); purchased DiscoverX scanMAX; host or cells: E. coli BL21-derived (T7 phage) or HEK-293
# MET(M1250T) = biological target: T32, MET(M1250T) (Homo sapiens, UniProt P08581, M1250T)
# T32 construct: purchased DiscoverX KINOMEscan
# YANK2 = biological target: T33, YANK2 (Homo sapiens, UniProt Q9NY57)
# T33 construct: DNA label for qPCR (T7 phage fusion or DNA tag); purchased DiscoverX scanMAX; host or cells: E. coli BL21-derived (T7 phage) or HEK-293
# MUSK = biological target: T34, MUSK (Homo sapiens, UniProt O15146)
# T34 construct: purchased DiscoverX KINOMEscan
# MAST1 = biological target: T35, MAST1 (Homo sapiens, UniProt Q9Y2H9)
# T35 construct: purchased DiscoverX KINOMEscan
# AMPK-alpha1 = biological target: T36, AMPK-alpha1 (Homo sapiens, UniProt Q13131)
# T36 construct: purchased DiscoverX KINOMEscan
# NEK4 = biological target: T37, NEK4 (Homo sapiens, UniProt P51957)
# T37 construct: purchased DiscoverX KINOMEscan
# RIOK1 = biological target: T38, RIOK1 (Homo sapiens, UniProt Q9BRS2)
# T38 construct: purchased DiscoverX KINOMEscan
# CSNK1A1 = biological target: T39, CSNK1A1 (Homo sapiens, UniProt P48729)
# T39 construct: purchased DiscoverX KINOMEscan
# NIK = biological target: T40, NIK (Homo sapiens, UniProt Q99558)
# T40 construct: purchased DiscoverX KINOMEscan
# T22 sequence (Q8IU85 whole entry): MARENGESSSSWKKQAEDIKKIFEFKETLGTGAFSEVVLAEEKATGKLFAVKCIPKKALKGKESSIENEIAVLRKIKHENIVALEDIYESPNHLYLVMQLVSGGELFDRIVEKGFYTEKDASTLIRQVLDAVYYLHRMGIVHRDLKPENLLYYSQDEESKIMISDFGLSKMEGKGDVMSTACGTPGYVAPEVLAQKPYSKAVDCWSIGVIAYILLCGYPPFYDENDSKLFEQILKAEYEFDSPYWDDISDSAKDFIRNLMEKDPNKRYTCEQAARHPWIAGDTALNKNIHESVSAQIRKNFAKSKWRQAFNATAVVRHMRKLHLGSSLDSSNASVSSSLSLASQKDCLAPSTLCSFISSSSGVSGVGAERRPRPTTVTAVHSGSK
# T8 sequence (P23458 574-855 limits assumed): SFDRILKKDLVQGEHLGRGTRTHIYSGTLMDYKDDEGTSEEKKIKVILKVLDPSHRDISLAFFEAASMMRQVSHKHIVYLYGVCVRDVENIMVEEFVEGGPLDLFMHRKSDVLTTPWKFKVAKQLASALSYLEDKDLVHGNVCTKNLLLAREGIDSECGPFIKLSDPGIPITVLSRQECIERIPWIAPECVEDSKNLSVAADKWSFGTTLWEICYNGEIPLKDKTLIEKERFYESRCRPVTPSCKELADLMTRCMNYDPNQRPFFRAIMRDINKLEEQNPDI
# T18 sequence (P29597 897-1176 limits assumed): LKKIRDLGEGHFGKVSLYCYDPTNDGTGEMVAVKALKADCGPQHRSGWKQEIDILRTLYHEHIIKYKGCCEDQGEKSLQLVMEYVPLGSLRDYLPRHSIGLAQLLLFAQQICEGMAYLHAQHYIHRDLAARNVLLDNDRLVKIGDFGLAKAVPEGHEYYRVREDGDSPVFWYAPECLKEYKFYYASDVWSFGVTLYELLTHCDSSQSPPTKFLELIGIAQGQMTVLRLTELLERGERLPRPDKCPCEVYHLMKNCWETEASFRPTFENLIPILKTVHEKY
# T21 sequence (Q9HAZ1 whole entry): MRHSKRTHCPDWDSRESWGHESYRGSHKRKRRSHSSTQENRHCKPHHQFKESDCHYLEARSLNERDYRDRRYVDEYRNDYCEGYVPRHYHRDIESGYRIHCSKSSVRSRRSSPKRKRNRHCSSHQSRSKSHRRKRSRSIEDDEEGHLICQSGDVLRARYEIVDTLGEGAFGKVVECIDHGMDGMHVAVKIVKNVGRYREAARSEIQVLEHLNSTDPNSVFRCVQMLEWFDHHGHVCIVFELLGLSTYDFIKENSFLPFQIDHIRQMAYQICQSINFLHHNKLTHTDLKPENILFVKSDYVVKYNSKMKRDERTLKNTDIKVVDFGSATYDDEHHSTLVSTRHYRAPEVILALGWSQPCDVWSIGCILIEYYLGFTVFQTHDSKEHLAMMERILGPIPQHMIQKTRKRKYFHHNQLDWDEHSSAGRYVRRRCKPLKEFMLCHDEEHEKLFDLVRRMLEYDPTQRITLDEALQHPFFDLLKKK
# T7 sequence (Q96J92 whole entry, the tested form may be a part): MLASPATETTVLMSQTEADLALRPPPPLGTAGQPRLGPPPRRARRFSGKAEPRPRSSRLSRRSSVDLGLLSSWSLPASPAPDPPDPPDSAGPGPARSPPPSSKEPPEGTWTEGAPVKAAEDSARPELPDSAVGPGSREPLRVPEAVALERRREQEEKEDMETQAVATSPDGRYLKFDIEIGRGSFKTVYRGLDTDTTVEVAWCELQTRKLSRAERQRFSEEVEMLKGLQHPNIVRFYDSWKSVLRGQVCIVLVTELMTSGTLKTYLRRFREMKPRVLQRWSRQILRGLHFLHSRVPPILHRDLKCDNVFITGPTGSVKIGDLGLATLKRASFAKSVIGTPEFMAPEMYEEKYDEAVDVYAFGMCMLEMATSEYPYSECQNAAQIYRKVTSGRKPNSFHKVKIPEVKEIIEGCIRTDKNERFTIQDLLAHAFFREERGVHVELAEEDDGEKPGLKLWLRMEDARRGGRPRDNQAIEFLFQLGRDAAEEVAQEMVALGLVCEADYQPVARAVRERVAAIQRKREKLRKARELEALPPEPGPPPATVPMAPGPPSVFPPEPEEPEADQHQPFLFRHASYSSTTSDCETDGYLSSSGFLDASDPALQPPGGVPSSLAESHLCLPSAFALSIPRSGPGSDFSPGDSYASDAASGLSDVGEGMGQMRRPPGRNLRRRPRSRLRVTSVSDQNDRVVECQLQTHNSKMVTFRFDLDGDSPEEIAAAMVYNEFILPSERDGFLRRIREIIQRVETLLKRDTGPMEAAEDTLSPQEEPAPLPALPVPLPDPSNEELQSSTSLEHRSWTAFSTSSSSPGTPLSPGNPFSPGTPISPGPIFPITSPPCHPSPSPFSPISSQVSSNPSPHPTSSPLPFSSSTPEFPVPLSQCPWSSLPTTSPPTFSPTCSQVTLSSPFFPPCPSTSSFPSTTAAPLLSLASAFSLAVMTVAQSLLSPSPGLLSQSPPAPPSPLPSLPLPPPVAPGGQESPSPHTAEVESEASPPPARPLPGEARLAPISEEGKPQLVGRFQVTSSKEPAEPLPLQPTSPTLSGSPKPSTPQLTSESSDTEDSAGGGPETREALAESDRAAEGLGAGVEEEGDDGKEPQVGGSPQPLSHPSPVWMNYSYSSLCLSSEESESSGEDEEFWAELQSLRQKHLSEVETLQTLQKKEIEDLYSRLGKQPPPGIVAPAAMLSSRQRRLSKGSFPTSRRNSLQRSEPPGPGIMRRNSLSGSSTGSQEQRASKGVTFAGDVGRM
# T30 sequence (Q9HBH9 whole entry): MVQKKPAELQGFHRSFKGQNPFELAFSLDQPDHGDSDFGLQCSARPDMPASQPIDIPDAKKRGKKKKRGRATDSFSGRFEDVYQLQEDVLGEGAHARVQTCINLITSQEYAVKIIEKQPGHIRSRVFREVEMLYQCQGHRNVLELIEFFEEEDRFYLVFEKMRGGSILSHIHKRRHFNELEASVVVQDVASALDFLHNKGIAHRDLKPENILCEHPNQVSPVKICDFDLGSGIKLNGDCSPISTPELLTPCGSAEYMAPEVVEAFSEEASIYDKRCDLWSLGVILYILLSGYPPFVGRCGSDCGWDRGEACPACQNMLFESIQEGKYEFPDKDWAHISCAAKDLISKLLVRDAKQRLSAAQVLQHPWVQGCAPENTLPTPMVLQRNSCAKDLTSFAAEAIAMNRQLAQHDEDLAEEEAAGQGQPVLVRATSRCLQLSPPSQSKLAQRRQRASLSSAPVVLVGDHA
# T4 sequence (Q9UL54 whole entry): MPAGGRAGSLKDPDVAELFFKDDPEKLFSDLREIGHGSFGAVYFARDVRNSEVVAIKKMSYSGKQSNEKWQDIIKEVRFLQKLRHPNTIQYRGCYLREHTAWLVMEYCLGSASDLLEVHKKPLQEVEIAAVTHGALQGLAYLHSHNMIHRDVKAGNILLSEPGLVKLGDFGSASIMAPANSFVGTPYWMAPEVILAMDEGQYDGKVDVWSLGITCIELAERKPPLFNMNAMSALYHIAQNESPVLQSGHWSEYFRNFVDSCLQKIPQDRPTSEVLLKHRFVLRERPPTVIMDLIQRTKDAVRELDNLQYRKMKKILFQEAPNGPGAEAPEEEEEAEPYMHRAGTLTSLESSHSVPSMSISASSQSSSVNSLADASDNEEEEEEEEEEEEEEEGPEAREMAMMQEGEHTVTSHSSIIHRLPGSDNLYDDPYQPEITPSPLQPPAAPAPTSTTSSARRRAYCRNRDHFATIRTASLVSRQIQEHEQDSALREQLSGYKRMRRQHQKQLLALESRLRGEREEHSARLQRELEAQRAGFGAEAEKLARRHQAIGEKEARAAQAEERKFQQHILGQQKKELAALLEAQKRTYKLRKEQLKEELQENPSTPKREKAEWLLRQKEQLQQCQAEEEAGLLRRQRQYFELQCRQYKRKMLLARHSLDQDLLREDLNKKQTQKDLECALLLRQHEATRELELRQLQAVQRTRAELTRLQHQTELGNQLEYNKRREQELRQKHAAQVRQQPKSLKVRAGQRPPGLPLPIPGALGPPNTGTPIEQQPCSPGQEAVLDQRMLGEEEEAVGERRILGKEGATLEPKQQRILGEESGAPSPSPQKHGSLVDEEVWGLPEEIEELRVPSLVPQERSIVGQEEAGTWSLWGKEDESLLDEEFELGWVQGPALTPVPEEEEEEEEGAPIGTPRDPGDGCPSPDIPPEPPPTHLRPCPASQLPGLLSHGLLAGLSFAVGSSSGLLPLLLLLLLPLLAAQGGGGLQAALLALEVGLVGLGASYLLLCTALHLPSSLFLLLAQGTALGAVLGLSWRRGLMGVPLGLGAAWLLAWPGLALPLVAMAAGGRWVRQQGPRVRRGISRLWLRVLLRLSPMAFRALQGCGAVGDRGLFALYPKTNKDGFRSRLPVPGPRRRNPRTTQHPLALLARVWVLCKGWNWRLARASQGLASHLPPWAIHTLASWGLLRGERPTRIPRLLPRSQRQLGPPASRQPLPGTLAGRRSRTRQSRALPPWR
# T36 sequence (Q13131 whole entry): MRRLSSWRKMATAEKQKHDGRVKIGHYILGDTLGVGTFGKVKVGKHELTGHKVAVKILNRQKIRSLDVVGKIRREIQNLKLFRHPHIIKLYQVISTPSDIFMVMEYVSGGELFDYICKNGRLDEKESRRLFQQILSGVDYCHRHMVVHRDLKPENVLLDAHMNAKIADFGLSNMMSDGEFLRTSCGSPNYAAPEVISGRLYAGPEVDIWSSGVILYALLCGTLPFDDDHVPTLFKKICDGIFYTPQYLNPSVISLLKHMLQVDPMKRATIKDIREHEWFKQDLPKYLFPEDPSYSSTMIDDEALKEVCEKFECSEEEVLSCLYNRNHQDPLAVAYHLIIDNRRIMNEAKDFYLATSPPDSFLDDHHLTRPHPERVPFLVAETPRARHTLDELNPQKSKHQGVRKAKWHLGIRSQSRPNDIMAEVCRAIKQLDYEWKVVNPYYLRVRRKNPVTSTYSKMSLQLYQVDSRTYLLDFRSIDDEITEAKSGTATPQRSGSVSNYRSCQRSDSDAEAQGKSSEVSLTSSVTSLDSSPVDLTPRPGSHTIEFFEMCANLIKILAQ
compound,measurement,setting,value
"CC(C)c1ccc(CC(=O)N2CCN(c3ccc(C#N)nn3)CC2)cc1 [PZ-2891, 6-(4-(2-(4-isopropylphenyl)acetyl)piperazin-1-yl)pyridazine-3-carbonitrile]",remaining binding at 10 µM,[1],96%
same,remaining binding at 10 µM,[2],97%
same,remaining binding at 10 µM,RET(V804M),95%
same,remaining binding at 10 µM,TAOK2,99%
same,remaining binding at 10 µM,PRKD3,66%
same,remaining binding at 10 µM,GSK3B,74%
same,remaining binding at 10 µM,WNK4,69%
same,remaining binding at 10 µM,[3],47%
same,remaining binding at 10 µM,VEGFR2,75%
same,remaining binding at 10 µM,IRAK1,91%
same,remaining binding at 10 µM,TXK,92%
same,remaining binding at 10 µM,TRKC,100%
same,remaining binding at 10 µM,PAK3,88%
same,remaining binding at 10 µM,SRMS,72%
same,remaining binding at 10 µM,MAP3K1,89%
same,remaining binding at 10 µM,HCK,79%
same,remaining binding at 10 µM,MEK5,69%
same,remaining binding at 10 µM,[4],67%
same,remaining binding at 10 µM,EPHB3,92%
same,remaining binding at 10 µM,FES,94%
same,remaining binding at 10 µM,CLK4,98%
same,remaining binding at 10 µM,CAMK1D,95%
same,remaining binding at 10 µM,SYK,82%
same,remaining binding at 10 µM,PKAC-alpha,87%
same,remaining binding at 10 µM,p38-gamma,58%
same,remaining binding at 10 µM,MINK,74%
same,remaining binding at 10 µM,SRPK3,67%
same,remaining binding at 10 µM,PLK2,84%
same,remaining binding at 10 µM,FLT3,57%
same,remaining binding at 10 µM,MKNK2,79%
same,remaining binding at 10 µM,WEE1,92%
same,remaining binding at 10 µM,MET(M1250T),98%
same,remaining binding at 10 µM,YANK2,100%
same,remaining binding at 10 µM,MUSK,95%
same,remaining binding at 10 µM,MAST1,61%
same,remaining binding at 10 µM,AMPK-alpha1,92%
same,remaining binding at 10 µM,NEK4,95%
same,remaining binding at 10 µM,RIOK1,100%
same,remaining binding at 10 µM,CSNK1A1,66%
same,remaining binding at 10 µM,NIK,100%
